Measurements published in ChEMBL document CHEMBL1138127, “Conversion of potent MMP inhibitors into selective TACE inhibitors” (Bioorg Med Chem Lett, 2006).

Assays:
[1] = biological target: 72 kDa type IV collagenase (Homo sapiens, UniProt P08253); assay: Binding affinity to MMP2
Collagenase 3 = Collagenase 3 (Homo sapiens, UniProt P45452); assay: Binding affinity to MMP13
Interstitial collagenase = biological target: T1, Interstitial collagenase (Homo sapiens, UniProt P03956); assay: Binding affinity to MMP1
T1 sequence (P03956 whole entry): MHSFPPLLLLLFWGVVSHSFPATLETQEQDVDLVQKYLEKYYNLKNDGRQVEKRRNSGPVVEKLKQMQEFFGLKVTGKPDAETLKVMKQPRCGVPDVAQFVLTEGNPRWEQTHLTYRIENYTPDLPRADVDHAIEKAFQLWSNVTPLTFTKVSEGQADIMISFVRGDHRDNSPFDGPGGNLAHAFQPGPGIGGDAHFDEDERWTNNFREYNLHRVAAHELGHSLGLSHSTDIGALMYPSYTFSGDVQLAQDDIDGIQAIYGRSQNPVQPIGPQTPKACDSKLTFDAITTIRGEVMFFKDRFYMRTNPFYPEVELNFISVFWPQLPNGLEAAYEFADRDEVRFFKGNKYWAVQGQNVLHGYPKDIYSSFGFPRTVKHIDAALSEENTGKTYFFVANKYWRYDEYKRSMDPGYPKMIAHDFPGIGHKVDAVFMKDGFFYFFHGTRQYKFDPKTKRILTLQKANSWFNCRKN

[2] = biological target: Matrix metalloproteinase-9 (Homo sapiens, UniProt P14780); assay: Binding affinity to MMP9
[3] = biological target: Disintegrin and metalloproteinase domain-containing protein 17 (Homo sapiens, UniProt P78536); assay: Inhibitory activity against TACE
Disintegrin and metalloproteinase domain-containing protein 17, sequence (P78536 whole entry, the tested form may be a part): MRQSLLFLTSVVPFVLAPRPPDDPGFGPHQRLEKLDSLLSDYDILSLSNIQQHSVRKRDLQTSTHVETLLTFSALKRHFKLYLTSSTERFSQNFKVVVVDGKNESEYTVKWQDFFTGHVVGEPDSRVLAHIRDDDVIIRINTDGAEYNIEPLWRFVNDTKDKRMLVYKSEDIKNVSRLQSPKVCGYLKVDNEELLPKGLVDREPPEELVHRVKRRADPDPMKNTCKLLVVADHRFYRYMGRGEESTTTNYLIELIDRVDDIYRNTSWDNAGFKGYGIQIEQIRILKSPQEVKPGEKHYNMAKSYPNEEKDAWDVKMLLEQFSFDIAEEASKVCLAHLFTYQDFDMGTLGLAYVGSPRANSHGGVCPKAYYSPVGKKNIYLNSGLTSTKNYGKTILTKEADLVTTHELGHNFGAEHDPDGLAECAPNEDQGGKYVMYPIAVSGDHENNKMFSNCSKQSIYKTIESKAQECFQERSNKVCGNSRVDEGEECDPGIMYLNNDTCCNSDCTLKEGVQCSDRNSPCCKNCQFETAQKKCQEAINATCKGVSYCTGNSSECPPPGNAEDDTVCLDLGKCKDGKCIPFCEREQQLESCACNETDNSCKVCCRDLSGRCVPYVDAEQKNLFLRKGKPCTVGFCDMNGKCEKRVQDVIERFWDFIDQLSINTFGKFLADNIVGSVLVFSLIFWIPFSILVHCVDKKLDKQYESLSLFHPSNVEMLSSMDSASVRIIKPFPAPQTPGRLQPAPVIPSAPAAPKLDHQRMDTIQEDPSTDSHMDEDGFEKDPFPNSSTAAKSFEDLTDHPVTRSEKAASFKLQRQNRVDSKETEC

Matrix metalloproteinase-9, sequence (P14780 whole entry, the tested form may be a part): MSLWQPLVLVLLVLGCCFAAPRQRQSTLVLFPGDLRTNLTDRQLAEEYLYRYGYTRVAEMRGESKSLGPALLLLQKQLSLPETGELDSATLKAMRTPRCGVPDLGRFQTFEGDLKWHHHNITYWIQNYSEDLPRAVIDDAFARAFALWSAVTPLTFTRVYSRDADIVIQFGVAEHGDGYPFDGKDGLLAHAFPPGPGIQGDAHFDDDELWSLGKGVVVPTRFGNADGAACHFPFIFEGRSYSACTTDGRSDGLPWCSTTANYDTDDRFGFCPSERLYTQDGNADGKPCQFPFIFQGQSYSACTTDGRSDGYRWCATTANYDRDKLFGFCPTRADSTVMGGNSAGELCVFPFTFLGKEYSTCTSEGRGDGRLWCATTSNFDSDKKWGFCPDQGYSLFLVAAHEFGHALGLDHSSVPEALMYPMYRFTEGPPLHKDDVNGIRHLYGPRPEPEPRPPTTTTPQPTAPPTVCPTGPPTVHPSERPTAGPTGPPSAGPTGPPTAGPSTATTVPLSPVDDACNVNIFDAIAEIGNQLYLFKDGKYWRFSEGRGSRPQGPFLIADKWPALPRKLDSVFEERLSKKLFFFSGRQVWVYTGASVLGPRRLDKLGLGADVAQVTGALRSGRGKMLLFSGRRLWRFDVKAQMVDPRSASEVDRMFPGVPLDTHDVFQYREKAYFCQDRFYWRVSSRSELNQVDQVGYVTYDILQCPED
72 kDa type IV collagenase, sequence (P08253 whole entry): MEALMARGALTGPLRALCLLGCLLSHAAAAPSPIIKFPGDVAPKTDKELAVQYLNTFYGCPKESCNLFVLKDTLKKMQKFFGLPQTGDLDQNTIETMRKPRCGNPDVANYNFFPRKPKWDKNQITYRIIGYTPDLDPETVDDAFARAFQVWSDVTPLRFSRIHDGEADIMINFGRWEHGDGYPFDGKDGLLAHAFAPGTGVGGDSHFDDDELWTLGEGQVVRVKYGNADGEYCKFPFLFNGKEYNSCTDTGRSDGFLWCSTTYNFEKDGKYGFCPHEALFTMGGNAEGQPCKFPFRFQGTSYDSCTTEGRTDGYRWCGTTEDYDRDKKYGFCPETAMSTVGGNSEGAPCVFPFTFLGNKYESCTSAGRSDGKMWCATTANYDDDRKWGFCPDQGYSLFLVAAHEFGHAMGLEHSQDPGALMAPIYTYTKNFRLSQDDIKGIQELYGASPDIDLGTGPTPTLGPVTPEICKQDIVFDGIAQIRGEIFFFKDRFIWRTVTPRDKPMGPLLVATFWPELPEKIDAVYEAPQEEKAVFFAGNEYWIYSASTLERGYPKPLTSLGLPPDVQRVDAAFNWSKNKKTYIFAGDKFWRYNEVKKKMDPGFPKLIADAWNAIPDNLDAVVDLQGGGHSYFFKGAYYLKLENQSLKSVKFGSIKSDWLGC

Compound | Ki [1] | Ki (Collagenase 3) | Ki (Interstitial collagenase) | Ki [2] | IC50 [3]
Cc1cc(COc2ccc(CC3C(C(=O)NO)CCS3(=O)=O)cc2)c2ccccc2n1 (configuration not stated) | > 3330 nM | > 5030 nM | > 4950 nM | > 2130 nM | 150 nM
Cc1cc(COc2ccc(CCN3C(C(=O)NO)CCS3(=O)=O)cc2)c2ccccc2n1 (configuration not stated) | > 3330 nM | > 5030 nM | > 4950 nM | > 2130 nM | 480 nM
Cc1cc(COc2ccc(N3C(C(=O)NO)CNS3(=O)=O)cc2)c2ccccc2n1 (configuration not stated) | > 3330 nM | > 5030 nM | > 4950 nM | > 2130 nM | 8.3 nM
Cc1cc(COc2ccc(N3C(C(=O)NO)CCS3(=O)=O)cc2)c2ccccc2n1 (configuration not stated) | > 3330 nM | > 5030 nM | > 4950 nM | > 2130 nM | 5.9 nM
Cc1cc(COc2ccc(N3C(C(=O)NO)CCCS3(=O)=O)cc2)c2ccccc2n1 (configuration not stated) | > 3330 nM | > 5030 nM | > 4950 nM | > 2130 nM | 3.7 nM
COc1ccc(-c2ccc(CN3C(C(=O)NO)CCS3(=O)=O)cc2)cc1 (configuration not stated) |  |  | > 4950 nM |  | > 1000 nM
Cc1cc(COc2ccc(CN3C(C(=O)NO)CCS3(=O)=O)cc2)c2ccccc2n1 (configuration not stated) | > 3330 nM | > 5030 nM | > 4950 nM | > 2130 nM | 900 nM
